Test results from the NIST ThermoML archive (doi:10.1021/je8000975).

Key:
[1] = Liquid; for speed of sound: Sing-around technique in a fixed-path interferometer
[2] = xn = mol fraction of the nth substance listed; conditions: 101 kPa, Liquid

CCOCCO [2-ethoxyethan-1-ol]
[1]
Conditions | mass density [kg/m3] | speed of sound [m/s]
293.15 K | 929.545 | 1319.9
298.15 K | 925.027 | 1301.7
303.15 K | 920.457 | 1284.2

COCCOCCO [2-(2-methoxyethoxy)ethanol]
[1]
Conditions | mass density [kg/m3] | speed of sound [m/s]
293.15 K | 1019.81 | 1432.4
298.15 K | 1015.41 | 1415.2
303.15 K | 1010.91 | 1397.9

CCCCOCCO [2-butoxyethan-1-ol]
[1]
Conditions | mass density [kg/m3] | speed of sound [m/s]
293.15 K | 900.094 | 1322.5
298.15 K | 895.91 | 1304.9
303.15 K | 891.697 | 1288

CCOCCO [2-ethoxyethan-1-ol] + COCCO
[2]
Conditions | mass density [kg/m3]
293.15 K, x2 = 0.1511 | 933.958
293.15 K, x2 = 0.2029 | 935.531
293.15 K, x2 = 0.3043 | 938.709
293.15 K, x2 = 0.3503 | 940.193
293.15 K, x2 = 0.5024 | 945.313
293.15 K, x2 = 0.5514 | 947.031
293.15 K, x2 = 0.6992 | 952.448
293.15 K, x2 = 0.7482 | 954.326
293.15 K, x2 = 0.798 | 956.272
293.15 K, x2 = 0.7992 | 956.321
293.15 K, x2 = 0.8504 | 958.373
293.15 K, x2 = 0.8997 | 960.393
293.15 K, x2 = 0.9488 | 962.456
298.15 K, x2 = 0.0536 | 926.563
298.15 K, x2 = 0.1039 | 928.032
298.15 K, x2 = 0.151 | 929.431
298.15 K, x2 = 0.1517 | 929.455
298.15 K, x2 = 0.3523 | 935.724
298.15 K, x2 = 0.3757 | 936.488
298.15 K, x2 = 0.4166 | 937.846
298.15 K, x2 = 0.4509 | 939.002
298.15 K, x2 = 0.5507 | 942.46
298.15 K, x2 = 0.5981 | 944.155
298.15 K, x2 = 0.7494 | 949.818
298.15 K, x2 = 0.7987 | 951.747
298.15 K, x2 = 0.8423 | 953.488
298.15 K, x2 = 0.8475 | 953.698
298.15 K, x2 = 0.9002 | 955.855
298.15 K, x2 = 0.9483 | 957.869
303.15 K, x2 = 0.1537 | 924.945
303.15 K, x2 = 0.1543 | 924.961
303.15 K, x2 = 0.2017 | 926.398
303.15 K, x2 = 0.2495 | 927.868
303.15 K, x2 = 0.3013 | 929.498
303.15 K, x2 = 0.402 | 932.768
303.15 K, x2 = 0.4505 | 934.39
303.15 K, x2 = 0.4985 | 936.037
303.15 K, x2 = 0.5505 | 937.856
303.15 K, x2 = 0.5979 | 939.553
303.15 K, x2 = 0.6504 | 941.473
303.15 K, x2 = 0.6979 | 943.248
303.15 K, x2 = 0.7488 | 945.193
303.15 K, x2 = 0.7998 | 947.188
303.15 K, x2 = 0.9001 | 951.244
